Data from the supplement of paper PMC13380429.

Key:
Conditions in all cases: 72 h
HepG2 [1] = assay: cell viability relative to DMSO; higher = less toxic
Caco-2 [2] = assay: as above
U2OS [3] = assay: as above
Vero E6 [4] = assay: as above
HepG2 [5] = assay: relative viability EC50 (midpoint between 100% and the lowest measured viability); higher = less toxic
Caco-2 [6] = assay: as above
U2OS [7] = assay: as above
Vero E6 [8] = assay: as above
HepG2 [9] = assay: drug sensitivity score (DSS) for viability; higher = more toxic; extreme values may be limits of the assay
Caco-2 [10] = assay: as above
U2OS [11] = assay: as above
Vero E6 [12] = assay: as above
Calu-3 [13] = assay: cell viability relative to DMSO; higher = less toxic
Calu-3 [14] = assay: relative viability EC50 (midpoint between 100% and the lowest measured viability); higher = less toxic
Calu-3 [15] = assay: drug sensitivity score (DSS) for viability; higher = more toxic; extreme values may be limits of the assay

SMILES	cell viability (HepG2 [1]; 1 nM) [%]	cell viability (HepG2 [1]; 10 nM) [%]	cell viability (HepG2 [1]; 100 nM) [%]	cell viability (HepG2 [1]; 1000 nM) [%]	cell viability (HepG2 [1]; 10000 nM) [%]	cell viability (Caco-2 [2]; 1 nM) [%]	cell viability (Caco-2 [2]; 10 nM) [%]	cell viability (Caco-2 [2]; 100 nM) [%]	cell viability (Caco-2 [2]; 1000 nM) [%]	cell viability (Caco-2 [2]; 10000 nM) [%]	cell viability (U2OS [3]; 1 nM) [%]	cell viability (U2OS [3]; 10 nM) [%]	cell viability (U2OS [3]; 100 nM) [%]	cell viability (U2OS [3]; 1000 nM) [%]	cell viability (U2OS [3]; 10000 nM) [%]	cell viability (Vero E6 [4]; 1 nM) [%]	cell viability (Vero E6 [4]; 10 nM) [%]	cell viability (Vero E6 [4]; 100 nM) [%]	cell viability (Vero E6 [4]; 1000 nM) [%]	cell viability (Vero E6 [4]; 10000 nM) [%]	relative viability EC50 (HepG2 [5]) [nM]	relative viability EC50 (Caco-2 [6]) [nM]	relative viability EC50 (U2OS [7]) [nM]	relative viability EC50 (Vero E6 [8]) [µM]	drug sensitivity score (HepG2 [9])	drug sensitivity score (Caco-2 [10])	drug sensitivity score (U2OS [11])	drug sensitivity score (Vero E6 [12])	cell viability (Calu-3 [13]; 1 nM) [%]	cell viability (Calu-3 [13]; 10 nM) [%]	cell viability (Calu-3 [13]; 100 nM) [%]	cell viability (Calu-3 [13]; 1000 nM) [%]	cell viability (Calu-3 [13]; 10000 nM) [%]	relative viability EC50 (Calu-3 [14]) [µM]	drug sensitivity score (Calu-3 [15])
O[C@@H](CN1CCNCC1)Cn1c2ccc(Br)cc2c2cc(Br)ccc21 [BAX-channel-blocker]	91.2	102	90.4	95	0.2	100	104	93.6	87.7	10.4	97.6	102	97.8	93.9	3.8	101	96.5	96.1	92.9	0.2	2780	2060	2660	2.59	6.3	7	6.3	6.6							
O=C(O)c1ccc2cc(-c3ccc(O)c(C45CC6CC(CC(C6)C4)C5)c3)ccc2c1 [CD-437]	108	95.4	105	48.8	29.3	99.4	92.8	89.4	56.2	36.8	101	100	98.7	84.7	9.8	107	99.1	104	87.6	54.7	685	436	1880		9.9	9.5	7.5	4.2	92.7	101	93.3	85.7	24.4	1.79	6.5
Fc1ccccc1CNCc1ccc(-c2ccnc3[nH]ccc23)cc1 [OXA-06]	105	90.4	108	107	86.9	91.3	103	91.5	101	90.2	98.6	102	96.8	97.2	69.8	103	95.6	97.3	97.6	85.4	> 10000	> 10000		> 10	0	0	1.8	0.4	111	106	100	139	139	> 10	0
C[C@H](Nc1cc2c(-c3ccc4c(c3)OCO4)noc2cn1)c1ccccc1 [TC-S-7005]	106	120	100	91.6	99	96.5	105	107	101	97.9						97.4	96.2	98.8	90.5	108	> 10000	> 10000		> 10	0	0		0	106	98	105	97.2	107	> 10	0
Oc1c(CN2CCCC2)cc(COCc2ccccc2)c2cccnc12 [UC-112]	97.5	94.5	96.2	81.6	16.6	92.2	95.9	99.1	73	3.6	97.6	91.1	94	88.9	43.1	97.8	95.3	94	51.7	6.8	1660	1460	1760	0.927	7.5	9.4	4.9	10.9	97.7	94.8	108	107	69.5		1
O=C(COc1ccc(C(=O)c2ccccc2)cc1)NC1CCN(Cc2ccccc2)CC1 [adiporon]	92.1	94.3	94.8	107	85.4	95.2	92.7	99	91.6	91.9	96.4	93.2	100	98.1	95.7	97.1	98.2	93.8	96.9	101	> 10000	> 10000	> 10000	> 10	0	0	0	0							
Cc1ccc(NC(=O)c2ccc(CN3CC[C@H](N(C)C)C3)c(C(F)(F)F)c2)cc1Nc1nccc(-c2cncnc2)n1 [bafetinib]	98.4	89.2	91	85.1	19.5	97.1	108	92.9	104	79	99.9	101	103	99.4	79	96.7	98.1	96.5	99.7	76.1	1800	> 10000	> 10000	> 10	6.9	0.5	0.7	0.9	98.7	107	98.8	99.9	74.8		1
O=S(=O)(O)c1cc(I)c(O)c2ncccc12 [chiniofon]	111	102	104	102	99	107	101	95.4	104	94.8											> 10000	> 10000			0	0			98.2	102	94.6	95.9	93.6	> 10	0
